Data: patent US11180452B2, “Methods and compositions for selectively inhibiting pathogenic microbes” (priority 2019, dated 2021)
Values after ≈ are worked out from the molar mass of the structure shown. Values joined by “and” are separate entries in the source; they are usually repeats but may differ in a detail not shown here. Identical values can stand only once. Like-named read-outs stand apart in the source and are kept apart here.

Legend:
NoSpin HepaRG cells = assay: HepaRG cytotoxicity, MTT assay EC50; type: cell-based, human; details: Homo sapiens, HepaRG; cytotoxicity EC50, Table 9
Protocol: Additionally, the antimicrobial compounds were analyzed for cytotoxicity. […] We utilized the standard MTT assay (Promega CellTiter 96) and GraphPad Prism 7 software to determine EC50 values for each analogue. Briefly, 20,000 HepG2 cells in 200 μl of the ATCC recommended media were seeded in each well of a 96-well plate with a moisture barrier created in the outermost wells. The cells were allowed to attach overnight at 37° C., and then observed under phase contrast microscopy for proper morphological characteristics. […] Once incubations were complete, the spectrophotometric absorbance of the samples was measured at a wavelength of 595 nm. […] For the HepaRG assay, NoSpin HepaRG™ cells (Lonza, cat #NSHPRG) were thawed and plated with 20,000 cells per well. They were allowed to attach for 4 h (optimal DME profile per Lonza's testing) before dosing following the identical protocol as above.

Bacillus subtilis = Bacillus subtilis MIC / MBC; type: cell-based; details: for MIC: Bacillus subtilis, Bacillus subtilis (Ehrenberg 1835) Cohn 1872 NRRL: B-571, read-out: MIC
Bacillus thuringiensis = type: cell-based; details: Bacillus thuringiensis Berliner ATCC: 10792
Candida glabrata = Candida glabrata MIC / MFC; type: cell-based; details: Nakaseomyces glabratus, Candida glabrata #584 (Table 2); read-out: MIC
[1] = test system: Francisella tularensis subsp. Holarctica Strain LVSR NR-597; assay: microbe, parasite or virus in culture; type: cell-based
N. gonorrhoeae = N. gonorrhoeae MIC; type: cell-based; details: Neisseria gonorrhoeae
[2] = test system: Francisella tularensis strains; assay: microbe, parasite or virus in culture; type: cell-based
[3] = Toxicity in mice, body weight over 7 days; type: in vivo, Balb/c mice; details: for Animal body weight (kg) Day 0 / Animal body weight (kg) Day 1 / Animal body weight (kg) Day 2 / Animal body weight (kg) Day 3 / Animal body weight (kg) Day 4 / Animal body weight (kg) Day 5 / Animal body weight (kg) Day 6 / Animal body weight (kg) Day 7: mice, IP; for Animal body weight (kg) Day 0: Day 0, individual animals; for Animal body weight (kg) Day 1: Day 1, individual animals; for Animal body weight (kg) Day 2: Day 2, individual animals; for Animal body weight (kg) Day 3: Day 3, individual animals; for Animal body weight (kg) Day 4: Day 4, individual animals; for Animal body weight (kg) Day 5: Day 5, individual animals; for Animal body weight (kg) Day 6: Day 6, individual animals; for Animal body weight (kg) Day 7: Day 7, individual animals
Source text: The vehicle is 40% PEG300 solution in 0.9% NaCl. […] Thus, the compounds are useful for in vivo antimicrobial administration.

[4] = test system: Burkholderia thailandensis Brett et al ATCC: 700388; assay: microbe, parasite or virus in culture; type: cell-based

SMILES: Cc1[nH]c2ccc(Br)cc2c1Sc1ccccc1Br [Compound 174AZ, 5-bromo-3-((2-bromophenyl)thio)-2-methyl-1H-indole]
- EC50 (NoSpin HepaRG cells): 25.8 µg/mL (≈ 65 µM)
- MBC (Bacillus subtilis; Bacillus subtilis NRRL: B-571, minimum bactericidal concentration): 4 µg/mL (≈ 10.1 µM)
- MIC (Bacillus subtilis): 1 µg/mL (≈ 2.52 µM)
- MBC (Bacillus thuringiensis): 8 µg/mL (≈ 20.1 µM)
- MIC (Bacillus thuringiensis; Bacillus thuringiensis, read-out: MIC): 1 µg/mL (≈ 2.52 µM)
- MIC (Candida glabrata): > 50 µg/mL
- MIC [1]: 1 µg/mL (≈ 2.52 µM)
- MIC (N. gonorrhoeae; strain #167): 3.12 µg/mL (≈ 7.87 µM)
- MIC50 [2]: 2 µg/mL (≈ 5.04 µM)
- MIC ([2]; read-out: F. tularensis BSL-3 MIC, Strain 100): 4 µg/mL (≈ 10.1 µM)
- MIC ([2]; read-out: F. tularensis BSL-3 MIC, strain HN-63): 2 µg/mL (≈ 5.04 µM)
- MIC ([2]; read-out: F. tularensis BSL-3 MIC, strain LVS): 2.67 µg/mL (≈ 6.72 µM)
- MIC ([2]; read-out: F. tularensis BSL-3 MIC, strain MA00-2987): 2 µg/mL (≈ 5.04 µM)
- MIC ([2]; read-out: F. tularensis BSL-3 MIC, strain MO #1): 1.33 µg/mL (≈ 3.35 µM)
- MIC ([2]; read-out: F. tularensis BSL-3 MIC, strain MO #2): 1 µg/mL (≈ 2.52 µM)
- MIC ([2]; read-out: F. tularensis BSL-3 MIC, strain MO #3): 2 µg/mL (≈ 5.04 µM)
- MIC ([2]; read-out: F. tularensis BSL-3 MIC, strain OR-96): 2 µg/mL (≈ 5.04 µM)
- MIC ([2]; read-out: F. tularensis BSL-3 MIC, strain SCHU S4): 4 µg/mL (≈ 10.1 µM)
- MIC ([2]; read-out: F. tularensis BSL-3 MIC, strain WY-96): 2 µg/mL (≈ 5.04 µM)
- MIC ([2]; read-out: MAX, highest MIC over the Francisella tularensis strains): 4 µg/mL (≈ 10.1 µM)
- MIC ([2]; read-out: MIN, lowest MIC over the Francisella tularensis strains): 1 µg/mL (≈ 2.52 µM)
- toxicity in mice by body weight ([3]; 6-week-old Balb/c mice, body weight over 7 days, vehicle 40% PEG300 in 0.9% NaCl): did not have significant toxicity
- Animal body weight (kg) Day 0 ([3]; 0.1 mg/kg, 0.1 mg/kg): 0.023 kg (2×) and 0.025 kg
- Animal body weight (kg) Day 1 ([3]; 0.1 mg/kg, 0.1 mg/kg): 0.022 kg and 0.024 kg and 0.023 kg
- Animal body weight (kg) Day 2 ([3]; 0.1 mg/kg, 0.1 mg/kg): 0.022 kg and 0.025 kg and 0.023 kg
- Animal body weight (kg) Day 3 ([3]; 0.1 mg/kg, 0.1 mg/kg): 0.022 kg and 0.025 kg and 0.023 kg
- Animal body weight (kg) Day 4 ([3]; 0.1 mg/kg, 0.1 mg/kg): 0.023 kg (2×) and 0.025 kg
- Animal body weight (kg) Day 5 ([3]; 0.1 mg/kg, 0.1 mg/kg): 0.022 kg and 0.025 kg and 0.023 kg
- Animal body weight (kg) Day 6 ([3]; 0.1 mg/kg, 0.1 mg/kg): 0.022 kg and 0.025 kg and 0.023 kg
- Animal body weight (kg) Day 7 ([3]; 0.1 mg/kg, 0.1 mg/kg): 0.022 kg (2×) and 0.025 kg
- Animal body weight (kg) Day 0 ([3]; 1 mg/kg, 1 mg/kg): 0.024 kg (2×) and 0.025 kg
- Animal body weight (kg) Day 1 ([3]; 1 mg/kg, 1 mg/kg): 0.023 kg and 0.024 kg (2×)
- Animal body weight (kg) Day 2 ([3]; 1 mg/kg): 0.024 kg
- Animal body weight (kg) Day 3 ([3]; 1 mg/kg, 1 mg/kg): 0.025 kg and 0.024 kg (2×)
- Animal body weight (kg) Day 4 ([3]; 1 mg/kg, 1 mg/kg): 0.025 kg (2×) and 0.024 kg
- Animal body weight (kg) Day 5 ([3]; 1 mg/kg, 1 mg/kg): 0.025 kg and 0.023 kg and 0.024 kg
- Animal body weight (kg) Day 6 ([3]; 1 mg/kg, 1 mg/kg): 0.025 kg and 0.024 kg (2×)
- Animal body weight (kg) Day 7 ([3]; 1 mg/kg, 1 mg/kg): 0.025 kg and 0.023 kg and 0.024 kg
- Animal body weight (kg) Day 0 ([3]; 10 mg/kg, 10 mg/kg): 0.023 kg (2×) and 0.024 kg
- Animal body weight (kg) Day 1 ([3]; 10 mg/kg, 10 mg/kg): 0.022 kg (2×) and 0.023 kg
- Animal body weight (kg) Day 2 ([3]; 10 mg/kg, 10 mg/kg): 0.022 kg and 0.023 kg (2×)
- Animal body weight (kg) Day 3 ([3]; 10 mg/kg, 10 mg/kg): 0.022 kg (2×) and 0.023 kg
- Animal body weight (kg) Day 4 ([3]; 10 mg/kg): 0.023 kg
- Animal body weight (kg) Day 5 ([3]; 10 mg/kg): 0.023 kg
- Animal body weight (kg) Day 6 ([3]; 10 mg/kg, 10 mg/kg): 0.022 kg (2×) and 0.023 kg
- Animal body weight (kg) Day 7 ([3]; 10 mg/kg, 10 mg/kg): 0.023 kg (2×) and 0.022 kg

SMILES: Nc1ccccc1Sc1c[nH]c2ccc(C(F)(F)F)cc12 [Compound 177C, 2-((5-(trifluoromethyl)-1H-indol-3-yl)thio)aniline]
- EC50 (NoSpin HepaRG cells): 48.2 µg/mL (≈ 156 µM)
- MIC (Bacillus subtilis): 0.39 µg/mL (≈ 1.26 µM)
- MBC [4]: > 50 µg/mL
- MIC [4]: > 50 µg/mL
- MIC (Candida glabrata): > 50 µg/mL
- MIC [1]: 3.13 µg/mL (≈ 10.2 µM)
- MIC (N. gonorrhoeae; strain #203): 3.13 µg/mL (≈ 10.2 µM)
- MIC (N. gonorrhoeae; strain #205): 3.13 µg/mL (≈ 10.2 µM)
